Assay results: patent publication US8007526B2, “Difunctionalized aromatic compounds and polymers therefrom” (Bezwada Biomedical, LLC, priority 2005, dated 2011)

Test: In vitro hydrolysis in Aldrich buffer at 100° C., monitored by TLC for disappearance of starting material
Type: physicochemical
Text: In Vitro Hydrolysis of Functionalized Aromatics
A compound and a polymer of the present invention were examined for their rates of hydrolysis as described below.

COC(=O)COC(=O)COc1ccc(C(=O)OCC(=O)OC)cc1 [Example 14, 4-Methoxycarbonylmethoxycarbonylmethoxy-benzoic acid methoxycarbonyl methyl ester]
Hydrolyzed in (time to hydrolysis) (100 mg in 10 mL Aldrich pH 7.4 buffer): Hydrolyzed in 26.5 hours | Hydrolyzed in (time to hydrolysis) (100 mg in 10 mL Aldrich pH 9 buffer, 1% solution): Hydrolyzed in 5 hours
